Test results published in ChEMBL document CHEMBL4706519, “Evaluation of N-phenyl-2-aminothiazoles for treatment of multi-drug resistant and intracellular Staphylococcus aureus infections” (Eur J Med Chem, 2020).
In brackets after ≈: the same amount, converted by molar mass.

Assays:
Staphylococcus aureus [1] = assay: Antibacterial activity against methicillin-resistant Staphylococcus aureus USA300 NRS384 assessed as inhibition of bacterial growth measured after 18 to 20 hrs by broth microdilution method; assay type: functional; details: time 18-20 hrs
Escherichia coli [2] = assay: Antibacterial activity against Escherichia coli JW55031 harboring toIC efflux mutant assessed as inhibition of bacterial growth measured after 18 to 20 hrs by broth microdilution method; assay type: functional; details: time 18-20 hrs
Escherichia coli [3] = assay: Antibacterial activity against wild type Escherichia coli BW25113 assessed as inhibition of bacterial growth measured after 18 to 20 hrs by broth microdilution method; assay type: functional; details: time 18-20 hrs
Streptococcus pneumoniae [4] = assay: Ratio of MBC to MIC for cephalosporin-resistant Streptococcus pneumoniae ATCC 51916 assessed as inhibition of bacterial growth measured after 18 to 20 hrs by CLSI protocol based broth microdilution method; assay type: functional; details: time 18-20 hrs
Listeria monocytogenes [5] = assay: Ratio of MBC to MIC for Listeria monocytogenes ATCC 19111 assessed as inhibition of bacterial growth measured after 18 to 20 hrs by CLSI protocol based broth microdilution method; assay type: functional; details: time 18-20 hrs
Enterococcus faecium [6] = assay: Ratio of MBC to MIC for vancomycin-resistant Enterococcus faecium ATCC 700221 assessed as inhibition of bacterial growth measured after 18 to 20 hrs by CLSI protocol based broth microdilution method; assay type: functional; details: time 18-20 hrs
Enterococcus faecalis [7] = assay: Ratio of MBC to MIC for vancomycin-resistant Enterococcus faecalis ATCC 51299 assessed as inhibition of bacterial growth measured after 18 to 20 hrs by CLSI protocol based broth microdilution method; assay type: functional; details: time 18-20 hrs
Staphylococcus aureus [8] = assay: Ratio of MBC to MIC against methicillin-sensitive Staphylococcus aureus ATCC 6538 assessed as inhibition of bacterial growth measured after 18 to 20 hrs by CLSI broth microdilution method; assay type: functional; details: time 18-20 hrs
Staphylococcus aureus [9] = assay: Antibacterial activity against vancomycin-resistant Staphylococcus aureus 10 assessed as inhibition of bacterial growth measured after 18 to 20 hrs by CLSI protocol based broth microdilution method; assay type: functional; details: time 18-20 hrs
[10] = tested on: Staphylococcus epidermidis; assay: Ratio of MBC to MIC for methicillin-resistant Staphylococcus epidermidis NRS101 assessed as inhibition of bacterial growth measured after 18 to 20 hrs by CLSI protocol based broth microdilution method; assay type: functional; details: time 18-20 hrs
Staphylococcus aureus [11] = assay: Antibacterial activity against vancomycin-resistant Staphylococcus aureus 12 assessed as inhibition of bacterial growth measured after 18 to 20 hrs by CLSI protocol based broth microdilution method; assay type: functional; details: time 18-20 hrs
[12] = tested on: Staphylococcus epidermidis; assay: Antibacterial activity against methicillin-resistant Staphylococcus epidermidis NRS101 assessed as inhibition of bacterial growth measured after 18 to 20 hrs by CLSI protocol based broth microdilution method; assay type: functional; details: time 18-20 hrs
Enterococcus faecium [13] = assay: Antibacterial activity against vancomycin-resistant Enterococcus faecium ATCC 700221 assessed as inhibition of bacterial growth measured after 18 to 20 hrs by CLSI protocol based broth microdilution method; assay type: functional; details: time 18-20 hrs
Listeria monocytogenes [14] = assay: Antibacterial activity against Listeria monocytogenes ATCC 19111 assessed as inhibition of bacterial growth measured after 18 to 20 hrs by CLSI protocol based broth microdilution method; assay type: functional; details: time 18-20 hrs
Streptococcus pneumoniae [15] = assay: Antibacterial activity against cephalosporin-resistant Streptococcus pneumoniae ATCC 51916 assessed as inhibition of bacterial growth measured after 18 to 20 hrs by CLSI protocol based broth microdilution method; assay type: functional; details: time 18-20 hrs
Streptococcus pneumoniae [16] = assay: Antibacterial activity against methicillin-resistant Streptococcus pneumoniae ATCC 700677 assessed as inhibition of bacterial growth measured after 18 to 20 hrs by CLSI protocol based broth microdilution method; assay type: functional; details: time 18-20 hrs
Staphylococcus aureus [17] = assay: Ratio of MBC to MIC against methicillin-sensitive Staphylococcus aureus NRS107 assessed as inhibition of bacterial growth measured after 18 to 20 hrs by CLSI protocol based broth microdilution method; assay type: functional; details: time 18-20 hrs
Staphylococcus aureus [18] = assay: Bactericidal activity against methicillin-resistant Staphylococcus aureus USA400 NRS123 assessed as log reduction in viable bacteria count at 5 times MIC incubated for 2 hrs in soy broth followed by incubation for 18 to 20 hrs on agar plate by time kill assay; assay type: functional; details: time 20-22 hrs
Staphylococcus aureus [19] = assay: Bactericidal activity against methicillin-resistant Staphylococcus aureus USA400 NRS123 assessed as post-antibiotic effect at 5 times MIC incubated for 2 hrs followed by compound wash-out by viable plate count method; assay type: functional
[20] = Cytotoxicity against human Caco-2 cells assessed as cell viability at 32 ug/ml incubated for 2 hrs by MTS assay relative to control; assay type: cell-based; details: at 32 µg/mL, read-out: Activity
[21] = Selectivity index, ratio of maximum non-toxic concentration for human Caco-2 cells to MIC for methicillin-resistant Staphylococcus aureus USA500 NRS385; assay type: toxicity
[22] = Selectivity index, ratio of maximum non-toxic concentration for human Caco-2 cells to MIC for methicillin-resistant Staphylococcus aureus USA400 NRS123; assay type: toxicity
[23] = Selectivity index, ratio of maximum non-toxic concentration for human Caco-2 cells to MIC for methicillin-resistant Staphylococcus aureus NRS119; assay type: toxicity
[24] = Selectivity index, ratio of maximum non-toxic concentration for human Caco-2 cells to MIC for methicillin-resistant Staphylococcus aureus USA300 NRS384; assay type: toxicity
Staphylococcus aureus [25] = assay: Antibacterial activity against methicillin-resistant Staphylococcus aureus USA400 NRS123 infected in mouse J774 cells assessed as reduction in intracellular bacterial burden at 2 x MIC measured after 24 hrs relative to control; assay type: functional
Staphylococcus aureus [26] = assay: Antibacterial activity against methicillin-resistant Staphylococcus aureus USA400 NRS123 infected in mouse J774 cells assessed as reduction in intracellular bacterial burden at 4 x MIC measured after 24 hrs relative to control; assay type: functional
Streptococcus pneumoniae [27] = assay: Ratio of MBC to MIC for methicillin-resistant Streptococcus pneumoniae ATCC 700677 assessed as inhibition of bacterial growth measured after 18 to 20 hrs by CLSI protocol based broth microdilution method; assay type: functional; details: time 18-20 hrs
Staphylococcus aureus [28] = assay: Bactericidal activity against methicillin-resistant Staphylococcus aureus USA400 NRS123 assessed as eradication of bacterial count at 5 times MIC incubated for 2 hrs in soy broth followed by incubation for 18 to 20 hrs on agar plate by time kill assay; assay type: functional; details: time 20-22 hrs
[29] = Selectivity index, ratio of maximum non-toxic concentration for human Caco-2 cells to MIC for methicillin-resistant Staphylococcus aureus USA700 NRS386; assay type: toxicity
J774 = assay: Cytotoxicity against mouse J774 cells assessed as cell viability at 32 ug/ml incubated for 2 hrs by MTS assay; assay type: cell-based; details: j774, 2 h, dose 32 µg/ml
Staphylococcus aureus [30] = assay: Antibacterial activity against methicillin-resistant Staphylococcus aureus USA400 NRS123 infected in mouse J774 cells assessed as log reduction in intracellular bacterial burden at 2 x MIC measured after 24 hrs; assay type: functional
Staphylococcus aureus [31] = assay: Antibacterial activity against methicillin-resistant Staphylococcus aureus USA400 NRS123 infected in mouse J774 cells assessed as log reduction in intracellular bacterial burden at 4 x MIC measured after 24 hrs; assay type: functional
Staphylococcus aureus [32] = assay: Ratio of MIC for methicillin-resistant Staphylococcus aureus USA400 NRS123 measured after 7th passage to MIC for methicillin-resistant Staphylococcus aureus USA400 NRS123 measured after 18 to 20 hrs by broth microdilution assay; assay type: functional
Staphylococcus aureus [33] = assay: Ratio of MIC for methicillin-resistant Staphylococcus aureus USA400 NRS123 measured after 14th passage to MIC for methicillin-resistant Staphylococcus aureus USA400 NRS123 measured after 18 to 20 hrs by broth microdilution assay; assay type: functional
Staphylococcus aureus [34] = assay: microbe, parasite or virus in culture; details: ATCC 6538
Staphylococcus aureus [35] = assay: microbe, parasite or virus in culture; details: NRS107
Staphylococcus aureus [36] = assay: microbe, parasite or virus in culture; details: NRS119
Staphylococcus aureus [37] = assay: microbe, parasite or virus in culture; details: USA400 NRS123
Staphylococcus aureus [38] = assay: microbe, parasite or virus in culture; details: USA500 NRS385
Staphylococcus aureus [39] = assay: microbe, parasite or virus in culture; details: USA700 NRS386
Enterococcus faecalis [40] = assay: microbe, parasite or virus in culture; details: ATCC 51299

SMILES: C/C(=N\NC(=N)N)c1ccc(Nc2nc(-c3ccc(Cl)cc3)cs2)cc1
- MIC (Staphylococcus aureus [1]): 4 µg/mL (≈ 10.4 µM)
- MIC (Escherichia coli [2]): 8 µg/mL (≈ 20.8 µM)
- MIC (Escherichia coli [3]): 8 µg/mL (≈ 20.8 µM)
- Ratio (Streptococcus pneumoniae [4]): 1
- Ratio (Listeria monocytogenes [5]): 1
- Ratio (Enterococcus faecium [6]): 1
- Ratio (Enterococcus faecalis [7]): 1
- Ratio (Staphylococcus aureus [8]): 1
- MBC (Staphylococcus aureus [9]): 1 µg/mL (≈ 2.6 µM)
- MIC (Staphylococcus aureus [9]): 1 µg/mL (≈ 2.6 µM)
- Ratio [10]: 1
- MBC (Staphylococcus aureus [11]): 1 µg/mL (≈ 2.6 µM)
- MIC (Staphylococcus aureus [11]): 1 µg/mL (≈ 2.6 µM)
- MBC [12]: 1 µg/mL (≈ 2.6 µM)
- MIC [12]: 1 µg/mL (≈ 2.6 µM)
- MBC (Enterococcus faecium [13]): 2 µg/mL (≈ 5.2 µM)
- MIC (Enterococcus faecium [13]): 1 µg/mL (≈ 2.6 µM)
- MBC (Listeria monocytogenes [14]): 2 µg/mL (≈ 5.2 µM)
- MIC (Listeria monocytogenes [14]): 1 µg/mL (≈ 2.6 µM)
- MBC (Streptococcus pneumoniae [15]): 4 µg/mL (≈ 10.4 µM)
- MIC (Streptococcus pneumoniae [15]): 2 µg/mL (≈ 5.2 µM)
- MBC (Streptococcus pneumoniae [16]): 4 µg/mL (≈ 10.4 µM)
- MIC (Streptococcus pneumoniae [16]): 2 µg/mL (≈ 5.2 µM)
- Ratio (Staphylococcus aureus [17]): 1
- Activity (Staphylococcus aureus [18]): 3 log10CFU/ml
- PAE (Staphylococcus aureus [19]): 4 h
- viability at 2 h, 32 ug/ml [20]: 100%
- selectivity ratio [21]: 16
- selectivity ratio [22]: 16
- selectivity ratio [23]: 16
- selectivity ratio [24]: 16
- inhibition (INH) (Staphylococcus aureus [25]): 69%
- inhibition (INH) (Staphylococcus aureus [26]): 97%
- Ratio (Streptococcus pneumoniae [27]): 1
- Activity (Staphylococcus aureus [28]): 100%
- selectivity ratio [29]: 16
- Activity (J774): Non-Toxic
- Activity (Staphylococcus aureus [30]): 0.51 log10CFU/ml
- Activity (Staphylococcus aureus [31]): 1.56 log10CFU/ml
- Ratio (Staphylococcus aureus [32]): 1
- Ratio (Staphylococcus aureus [33]): 3
- MBC (Staphylococcus aureus [34]): 1 µg/mL (≈ 2.6 µM)
- MIC (Staphylococcus aureus [34]): 1 µg/mL (≈ 2.6 µM)
- MBC (Staphylococcus aureus [35]): 1 µg/mL (≈ 2.6 µM)
- MIC (Staphylococcus aureus [35]): 1 µg/mL (≈ 2.6 µM)
- MBC (Staphylococcus aureus [36]): 1 µg/mL (≈ 2.6 µM)
- MIC (Staphylococcus aureus [36]): 1 µg/mL (≈ 2.6 µM)
- MBC (Staphylococcus aureus [37]): 1 µg/mL (≈ 2.6 µM)
- MIC (Staphylococcus aureus [37]): 1 µg/mL (≈ 2.6 µM)
- MBC (Staphylococcus aureus [38]): 2 µg/mL (≈ 5.2 µM)
- MIC (Staphylococcus aureus [38]): 1 µg/mL (≈ 2.6 µM)
- MBC (Staphylococcus aureus [39]): 4 µg/mL (≈ 10.4 µM)
- MIC (Staphylococcus aureus [39]): 1 µg/mL (≈ 2.6 µM)
- MBC (Enterococcus faecalis [40]): 4 µg/mL (≈ 10.4 µM)
- MIC (Enterococcus faecalis [40]): 1 µg/mL (≈ 2.6 µM)
